Experimental data from PubChem BioAssay AID248 (DTP/NCI, 2004).
Toxic doses and inconclusive results are not listed. Cut-off read from the data, not from the text of the source: active = T/C of 150% or more; inactive = T/C below 125%.

Test system: L1210 leukemia ip in BDF1 mice, survival T/C
Test: NCI In Vivo Anticancer Drug Screen. Data for tumor model L1210 Leukemia (intraperitoneal) in B6D2F1 (BDF1) mice
Details: endpoint: mean survival time, higher = longer survival
Method in brief: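 In this screen, tumor-bearing mice given compound are compared to those given vehicle, and their survival values are reported as a treated-to-control quotient.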

[1] = dose: 50.0 mg/kg/injection, schedule: Q01DX001 (ip), vehicle: saline
[2] = dose: 100.0 mg/kg/injection, schedule: Q01DX001 (ip), vehicle: saline
[3] = dose: 200.0 mg/kg/injection, schedule: Q01DX001 (ip), vehicle: saline
[4] = dose: 400.0 mg/kg/injection, schedule: Q01DX001 (ip), vehicle: saline

Measured: T/C

CC1(C)N=C(N)N=C(N)N1c1cccc(OCCCOc2cccc(N)c2)c1
inactive: dose: 25.0 mg/kg/injection, schedule: Q01DX001 (ip), vehicle: saline 97 % of control | [1] 98 % of control

[CH3][Pb]([CH3])([CH3])[I]
inactive: dose: 100.0 mg/kg/injection, schedule: Q04DX003 (ip), vehicle: Klucel (hydroxypropylcellulose) (HPC) 103 % of control | dose: 200.0 mg/kg/injection, schedule: Q04DX003 (ip), vehicle: Klucel (hydroxypropylcellulose) (HPC) 98 % of control | dose: 400.0 mg/kg/injection, schedule: Q04DX003 (ip), vehicle: Klucel (hydroxypropylcellulose) (HPC) 94 % of control

CCSN1C(=O)c2ccccc2C1=O
inactive: dose: 25.0 mg/kg/injection, schedule: Q04DX002 (ip), vehicle: Klucel (hydroxypropylcellulose) (HPC) 92 % of control | dose: 50.0 mg/kg/injection, schedule: Q04DX002 (ip), vehicle: Klucel (hydroxypropylcellulose) (HPC) 100 % of control | dose: 100.0 mg/kg/injection, schedule: Q04DX002 (ip), vehicle: Klucel (hydroxypropylcellulose) (HPC) 92 % of control

O=C1c2cc([N+](=O)[O-])ccc2NC1(c1c[nH]c2ccccc12)c1c[nH]c2ccc(Br)cc12 (centres undefined)
inactive: [1] 96 % of control | [2] 96 % of control | [3] 96 % of control | [4] 93 % of control

CCOC(=O)CC(C(=O)OCC)N1CCCCC1 (centres undefined)
inactive: [2] 92 % of control | dose: 100.0 mg/kg/injection, schedule: Q01DX009 (ip), vehicle: alcohol 95 % of control | dose: 100.0 mg/kg/injection, schedule: Q04DX003 (ip), vehicle: alcohol 100 % of control | [3] 91 % of control | dose: 200.0 mg/kg/injection, schedule: Q01DX009 (ip), vehicle: alcohol 95 % of control | dose: 200.0 mg/kg/injection, schedule: Q04DX003 (ip), vehicle: alcohol 95 % of control | [4] 94 % of control | dose: 400.0 mg/kg/injection, schedule: Q01DX009 (ip), vehicle: alcohol 105 % of control | dose: 400.0 mg/kg/injection, schedule: Q04DX003 (ip), vehicle: alcohol 97 % of control

CC(=O)C(CCl)C(C)=O
inactive: dose: 50.0 mg/kg/injection, schedule: Q01DX001 (ip), vehicle: other 102 % of control | dose: 100.0 mg/kg/injection, schedule: Q01DX001 (ip), vehicle: other 96 % of control | dose: 200.0 mg/kg/injection, schedule: Q01DX001 (ip), vehicle: other 96 % of control | dose: 400.0 mg/kg/injection, schedule: Q01DX001 (ip), vehicle: other 96 % of control

CC(/C=C/c1ccccc1)=N\NC(=O)NN
inactive: [2] 91 % of control | [3] 89 % of control | [4] 89 % of control

CC1(C)C(=NC2CCCCC2)C(C)(C)C1=NC1CCCCC1
inactive: dose: 75.0 mg/kg/injection, schedule: Q01DX001 (ip), vehicle: saline 101 % of control | dose: 150.0 mg/kg/injection, schedule: Q01DX001 (ip), vehicle: saline 100 % of control | dose: 300.0 mg/kg/injection, schedule: Q01DX001 (ip), vehicle: saline 100 % of control

Nc1ccn(C2OC(CO)C(O)C2O)c(=NC(CO)C(=O)O)n1 (centres undefined)
inactive: dose: 100.0 mg/kg/injection, schedule: Q01DX005 (ip), vehicle: saline 117 % of control | dose: 200.0 mg/kg/injection, schedule: Q01DX005 (ip), vehicle: saline 120 % of control

N=c1ccn(C(=O)C2=Cc3ccccc3OC2)cc1
inactive: dose: 5.0 mg/kg/injection, schedule: Q01DX009 (ip), vehicle: saline with Tween-80 101 % of control | dose: 10.0 mg/kg/injection, schedule: Q01DX009 (ip), vehicle: saline with Tween-80 90 % of control | dose: 10.0 mg/kg/injection, schedule: Q04DX003 (ip), vehicle: saline with Tween-80 100 % of control | dose: 20.0 mg/kg/injection, schedule: Q01DX009 (ip), vehicle: saline with Tween-80 96 % of control | dose: 20.0 mg/kg/injection, schedule: Q04DX003 (ip), vehicle: saline with Tween-80 98 % of control

CCN(C)CCN(C)CC
inactive: dose: 100.0 mg/kg/injection, schedule: Q01DX009 (ip), vehicle: saline 102 % of control | dose: 100.0 mg/kg/injection, schedule: Q04DX003 (ip), vehicle: saline 97 % of control | dose: 200.0 mg/kg/injection, schedule: Q01DX009 (ip), vehicle: saline 104 % of control | dose: 200.0 mg/kg/injection, schedule: Q04DX003 (ip), vehicle: saline 99 % of control | dose: 400.0 mg/kg/injection, schedule: Q01DX009 (ip), vehicle: saline 106 % of control | dose: 400.0 mg/kg/injection, schedule: Q04DX003 (ip), vehicle: saline 99 % of control
